Reference: patent US11207301B2, “Sphingosine 1 phosphate receptor agonists for neuroprotection” (RECEPTOS LLC, priority 2017, dated 2021)

What was measured:
[1] = tested on: cuprizone-induced mouse model of demyelination; assay: Cuprizone-induced mouse model of demyelination / neuroprotection; type: in vivo, C57BL/6 mice; details: 1 mg/kg; vehicle 258±49.1, p<0.001
From the text: The effect of a S1P receptor agonist on spinal cord axial demyelination or reduction in axonal breaks can be assessed by measuring concentration of neurofilament light chain (NfL) in the plasma. NfL is released to the plasma following axonal injury and degeneration. Histological examination of axons with antineurofilament H non-phosphorylated mouse antibody SMI-32 can also be used to assess axonal demyelination or breaks. NfH is phosphorylated in healthy axons and unphosphorylated in damaged axons. In addition, the effects of ozanimod on the CNS were examined in vivo using the cuprizone-induced mouse model of demyelination and in vitro in primary rodent astrocytes. Efficacy of ozanimod or compound (2-R) was examined in the cuprizone-induced mouse model of neuroprotection. C57BL/6 mice were treated with cuprizone (0.3% weight/weight orally) and rapamycin (10 mg/kg intraperitoneally daily) to demyelinate axons in the brain and concurrently treated with ozanimod (0.1, 0.3, or 1 mg/kg) or compound (2-S) (1 mg/kg) by daily oral gavage to investigate its neuroprotective activity. Neuroprotection was assessed through examination of axonal pathology in the corpus callosum using SMI-32 (antineurofilament H non-phosphorylated mouse monoclonal antibody) staining, functional assessment through kinematic gait analysis and the plasma biomarker neurofilament light chain (NfL). Further, direct activity of ozanimod was examined in resting and activated primary rodent astrocytes in vitro.

[2] = biological target: T1, Recombinant human MAO-A (Homo sapiens, UniProt P21397); assay: MAO-A inhibition, conversion of kynuramine to 4-hydroxyquinoline; type: biochemical
T1 construct: purchased Sigma-Aldrich M7316; host or cells: baculovirus infected insect cells
T1 sequence (P21397 1-527): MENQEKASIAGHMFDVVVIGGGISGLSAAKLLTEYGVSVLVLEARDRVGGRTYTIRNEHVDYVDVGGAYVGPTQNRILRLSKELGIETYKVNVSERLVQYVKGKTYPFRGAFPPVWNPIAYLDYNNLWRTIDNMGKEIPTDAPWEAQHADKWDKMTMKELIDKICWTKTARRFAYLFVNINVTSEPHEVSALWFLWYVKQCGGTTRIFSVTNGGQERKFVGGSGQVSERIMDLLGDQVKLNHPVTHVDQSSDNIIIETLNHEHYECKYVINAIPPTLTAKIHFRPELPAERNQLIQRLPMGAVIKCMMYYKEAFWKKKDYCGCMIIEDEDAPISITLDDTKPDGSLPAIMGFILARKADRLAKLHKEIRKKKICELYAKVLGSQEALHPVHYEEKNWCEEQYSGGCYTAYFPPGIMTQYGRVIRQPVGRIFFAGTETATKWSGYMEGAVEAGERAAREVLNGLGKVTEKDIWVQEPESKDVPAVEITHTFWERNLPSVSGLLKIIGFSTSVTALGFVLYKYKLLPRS
Description: (§1) The effect of a S1P receptoragonist on MAO-B activity can be assessed by measuring the inhibition of conversion of substrate kynuramine to 4-hydroxyquinoline as described in Example 4.
(§2) Compound 1 and Compound 2-S were evaluated for their ability to inhibit MAO-A and MAO-B. Inhibition of the conversion of kynuramine, a substrate for MAO-A and MAO-B, to 4-hydroxyquinoline was used to assess the inhibitory potential of Compound 1 and Compound 2-S. Recombinant human MAO-A (product number M7316) and MAO-B (product number M7441) expressed in baculovirus infected insect cells were obtained from Sigma-Aldrich, Saint Louis, Mo. USA were used as a source of purified MAOs.
Recombinant MAO-A (0.01 mg/mL, final concentrations) and MAO-B (0.02 mg/mL, final concentration) were diluted to desired concentrations in 100 mM potassium phosphate buffer (pH 7.4) containing 5 mM MgCl2. The diluted protein fractions were preincubated with various concentrations of each test compound at 37° C. for 2 min. The concentrations used were 100, 33, 10, 3.3, 1.0, 0.33 μM and acetonitrile/DMSO as vehicle control for MAO-A and 1.0, 0.3, 0.1, 0.03, 0.01, 0.003 μM and acetonitrile/DMSO as vehicle control for MAO-B. The reaction was started by addition of kynuramine to the incubation mixture. The final concentration of kynuramine was 40 μM for MAO-A and 25 μM for MAO-B. The total incubation volume was 0.250 mL. […] The reaction product, 4-hydroxyquinoline was analyzed by LC-MS/MS as described below. […]
(§3) The gradient system was used to separate the analytes with a flow rate of 0.5 ml/min using mobile phase A, water containing 0.1% formic acid and mobile phase B, acetonitrile containing 0.1% formic acid. […] The analytes were monitored using multiple reaction monitoring and the ion transitions (Q1/Q3) were as follows: 4-hydroxyquinoline 146/104 (collision energy, CE was 27; declustering potential, DP, 50, and IS (acetaminophen), 152/110 (collision energy, CE was 27; declustering potential, DP, 50). All data were analyzed using AB Sciex Analyst v1.6.2 software.

[3] = biological target: T2, Recombinant human MAO-B (Homo sapiens, UniProt P27338); assay: MAO-B inhibition, conversion of kynuramine to 4-hydroxyquinoline; type: biochemical
T2 construct: purchased Sigma-Aldrich M7441; host or cells: baculovirus infected insect cells
T2 sequence (P27338 1-520): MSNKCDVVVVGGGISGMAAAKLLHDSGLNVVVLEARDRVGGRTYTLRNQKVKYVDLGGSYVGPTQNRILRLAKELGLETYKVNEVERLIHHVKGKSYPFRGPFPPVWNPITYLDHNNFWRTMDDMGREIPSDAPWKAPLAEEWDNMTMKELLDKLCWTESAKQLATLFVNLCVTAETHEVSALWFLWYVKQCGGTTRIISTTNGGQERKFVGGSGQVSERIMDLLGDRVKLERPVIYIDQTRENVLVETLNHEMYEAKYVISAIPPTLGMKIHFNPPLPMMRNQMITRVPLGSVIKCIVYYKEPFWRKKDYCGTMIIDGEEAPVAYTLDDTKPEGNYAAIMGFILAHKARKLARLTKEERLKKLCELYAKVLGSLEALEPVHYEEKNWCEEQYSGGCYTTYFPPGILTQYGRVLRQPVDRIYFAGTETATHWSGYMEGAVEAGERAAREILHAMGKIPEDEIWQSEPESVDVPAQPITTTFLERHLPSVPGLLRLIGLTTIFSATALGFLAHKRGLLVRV
Description: as §1, §2
Recombinant MAO-A (0.01 mg/mL, final concentrations) and MAO-B (0.02 mg/mL, final concentration) were diluted to desired concentrations in 100 mM potassium phosphate buffer (pH 7.4) containing 5 mM MgCl2. The diluted protein fractions were preincubated with various concentrations of each test compound at 37° C. for 2 min. The concentrations used were 100, 33, 10, 3.3, 1.0, 0.33 μM and acetonitrile/DMSO as vehicle control for MAO-A and 1.0, 0.3, 0.1, 0.03, 0.01, 0.003 μM and acetonitrile/DMSO as vehicle control for MAO-B. The reaction was started by addition of kynuramine to the incubation mixture. The final concentration of kynuramine was 40 μM for MAO-A and 25 μM for MAO-B. The total incubation volume was 0.250 mL. This concentration was selected to be close to the Km values of MAO-A (Km 42 μM) and MAO-B (Km 26 μM). After 10 min of incubation, aliquots (100 μL) of the reaction mixture were taken and added to 200 μL acetonitrile containing 0.5 μM IS (acetaminophen). The reaction product, 4-hydroxyquinoline was analyzed by LC-MS/MS as described below.
MS characterization and detection of kynuramine and 4-hydroxyquinoline was performed using ABI 4000 Sciex QTrap mass spectrometer utilizing a Turbo Spray. The mass spectrometer was controlled by Analyst v1.6.2. The ESI was operated in a positive ion mode and the experimental parameters were set as follows: ion spray voltage, 2000; source temperature, 550° C.; curtain gas, 20; collision gas, medium ion source gas 1, 55; ion source gas 2, 50. […]
as §3

IC50 ([2]; kynuramine 40 μM, 10 min incubation): 1200 nM
MAO-A inhibition (in words) ([2]; tested up to 100 μM): inhibitory activity
MAO-B inhibition (in words) [3]: inhibitory activity
IC50 ([3]; kynuramine 25 μM, 10 min incubation): 32 nM
SMILES: CC(C)Oc1ccc(-c2nc(-c3cccc4c3CC[C@@H]4N)no2)cc1C#N [Compound 2-S]
plasma biomarker NfL [1]: 127 ± 12.2 pg/mL
